Experimental data from ChEMBL document CHEMBL3739316, “Novel orally active inhibitors of β-1,3-glucan synthesis derived from enfumafungin” (Bioorg Med Chem Lett, 2015).
≈ marks a conversion by molar mass, not a printed value.

Experiments:
[1] = target: T1, Beta-1,3-glucan synthase (Candida albicans, UniProt O13383); test: Displacement of UDP-[3H]glucose from beta-1,3-glucan synthase in Candida albicans MY1055 microsomal membranes incubated for 2 hrs
T1 sequence (O13383 whole entry): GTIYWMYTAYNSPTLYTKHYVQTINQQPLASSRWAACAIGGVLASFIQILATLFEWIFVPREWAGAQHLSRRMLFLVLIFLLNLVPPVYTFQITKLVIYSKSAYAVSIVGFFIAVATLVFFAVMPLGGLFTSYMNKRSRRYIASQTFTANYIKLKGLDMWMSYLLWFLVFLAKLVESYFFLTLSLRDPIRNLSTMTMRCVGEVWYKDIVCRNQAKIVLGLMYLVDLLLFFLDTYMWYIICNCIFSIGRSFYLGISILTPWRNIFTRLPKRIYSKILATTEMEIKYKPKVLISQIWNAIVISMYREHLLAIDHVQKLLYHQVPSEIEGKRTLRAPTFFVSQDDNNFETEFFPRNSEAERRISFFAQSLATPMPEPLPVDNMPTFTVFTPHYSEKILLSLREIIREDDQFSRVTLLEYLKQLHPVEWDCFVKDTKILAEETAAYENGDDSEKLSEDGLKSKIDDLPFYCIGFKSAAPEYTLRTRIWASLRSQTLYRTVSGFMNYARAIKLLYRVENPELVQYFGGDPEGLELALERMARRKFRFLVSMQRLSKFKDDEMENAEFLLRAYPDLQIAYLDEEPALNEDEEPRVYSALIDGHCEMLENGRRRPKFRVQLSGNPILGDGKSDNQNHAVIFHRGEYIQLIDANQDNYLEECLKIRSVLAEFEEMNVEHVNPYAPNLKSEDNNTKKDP

[2] = tested on: Candida albicans; test: Antifungal activity against Candida albicans MY1055 in DBA/2 mouse candidiasis model assessed as change in CFU per gram of kidney at 12.5 mg/kg, po bid after 7 days by Target Organ Kidney Assay relative to sham treated control; type: functional
[3] = tested on: Candida albicans; test: Antifungal activity against Candida albicans MY1055 after 24 hrs by liquid microdilution assay; type: functional; conditions: MY1055, 24 h
[4] = tested on: Candida albicans; test: Antifungal activity against Candida albicans MY1055 in DBA/2 mouse candidiasis model assessed as change in CFU per gram of kidney at 25 mg/kg, po bid after 7 days by Target Organ Kidney Assay relative to sham treated control; type: functional
[5] = Oral bioavailability in mouse; type: ADME, organism-based; conditions: in vivo
[6] = tested on: Candida albicans; test: Antifungal activity against Candida albicans MY1055 in DBA/2N mouse candidiasis model assessed as mouse survival at 12.5 mg/kg, ip bid after 7 days by Target Organ Kidney Assay relative to sham treated control; type: functional; conditions: 168 h
[7] = tested on: Mus musculus; test: AUC (0 to 24 hrs) in DBA/2J mouse assessed as total metabolites at 10 mg/kg, po; type: ADME, organism-based; conditions: in vivo
[8] = tested on: Aspergillus fumigatus; test: Antifungal activity against Aspergillus fumigatus MF5668 after 24 hrs by liquid microdilution assay; type: functional; conditions: MF5668, 24 h, read-out: MEC
[9] = tested on: Candida albicans; test: Antifungal activity against Candida albicans MY1055 in DBA/2 mouse candidiasis model assessed as change in CFU per gram of kidney at 12.5 mg/kg, po bid after 4 days by Target Organ Kidney Assay relative to sham treated control; type: functional
[10] = tested on: Candida albicans; test: Antifungal activity against Candida albicans MY1055 in DBA/2 mouse candidiasis model assessed as change in CFU per gram of kidney at 6.25 mg/kg, po bid after 4 days by Target Organ Kidney Assay relative to sham treated control; type: functional
[11] = tested on: Candida albicans; test: Antifungal activity against Candida albicans MY1055 in DBA/2 mouse candidiasis model assessed as change in CFU per gram of kidney at 25 mg/kg, po bid after 4 days by Target Organ Kidney Assay relative to sham treated control; type: functional
[12] = tested on: Candida albicans; test: Antifungal activity against Candida albicans MY1055 in DBA/2N mouse candidiasis model assessed as mouse survival at 12.5 mg/kg, po bid after 7 days by Target Organ Kidney Assay relative to sham treated control; type: functional; conditions: 168 h
[13] = tested on: Candida albicans; test: Antifungal activity against Candida albicans MY1055 in DBA/2 mouse candidiasis model assessed as change in CFU per gram of kidney at 6.25 mg/kg, po bid after 7 days by Target Organ Kidney Assay relative to sham treated control; type: functional
[14] = tested on: Mus musculus; test: AUC (0 to 24 hrs) in DBA/2J mouse assessed as metabolite 13c at 10 mg/kg, po; type: ADME, organism-based; design: dose 10 mg/kg, time < 24 hr, route oral; conditions: in vivo
[15] = tested on: Candida albicans; test: Antifungal activity against Candida albicans MY1055 after 24 hrs by liquid microdilution assay in presence of human serum; type: functional; conditions: MY1055, 24 h
[16] = tested on: Candida albicans; test: Antifungal activity against Candida albicans MY1055 in DBA/2N mouse candidiasis model assessed as reduction of fungal burden after 7 days; type: functional; conditions: MY1055, 168 h
[17] = tested on: Candida albicans; test: Antifungal activity against Candida albicans MY1055 in DBA/2N mouse candidiasis model assessed as mouse survival at 25 mg/kg, po bid after 7 days by Target Organ Kidney Assay relative to sham treated control; type: functional; conditions: 168 h
[18] = AUC (0 to 24 hrs) in DBA/2J mouse at 10 mg/kg, po; type: ADME, organism-based; design: dose 10 mg/kg, time < 24 hr, route oral; conditions: in vivo
[19] = tested on: Candida albicans; test: Antifungal activity against Candida albicans MY1055 in DBA/2N mouse candidiasis model assessed as mouse survival at 6.25 mg/kg, po bid after 4 days by Target Organ Kidney Assay relative to sham treated control; type: functional; conditions: 96 h
[20] = tested on: Candida albicans; test: Antifungal activity against Candida albicans MY1055 in DBA/2 mouse candidiasis model assessed as change in CFU per gram of kidney at 12.5 mg/kg, ip bid after 7 days by Target Organ Kidney Assay relative to sham treated control; type: functional
[21] = tested on: Mus musculus; test: Dose normalized AUC in orally dosed mouse; type: ADME, organism-based; conditions: in vivo, po
[22] = tested on: Mus musculus; test: Drug level in DBA/2J mouse treated with 13f at 10 mg/kg, po; type: ADME, organism-based; conditions: in vivo
[23] = tested on: Mus musculus; test: AUC (0 to 24 hrs) in DBA/2J mouse assessed as metabolite 13e at 10 mg/kg, po; type: ADME, organism-based; design: dose 10 mg/kg, time < 24 hr, route oral; conditions: in vivo

Compound	IC50 [1]	Activity [2]	MIC [3]	Activity [4]	bioavailability [5]	survival at 12.5 mg/kg [6]	Drug uptake [7]	minimal effective concentration [8]	Activity [9]	Activity [10]	Activity [11]	survival at 12.5 mg/kg [12]	Activity [13]	AUC [14]	MIC [15]	ED99 [16]	survival at 25 mg/kg [17]	AUC(0-t) at 24 h [18]	survival at 6.25 mg/kg [19]	AUC/dose [21]	other results
CCCN[C@@](C)(CO[C@H]1[C@H](n2nnc(N)n2)C[C@@]23COCC1(C)[C@@H]2CC[C@H]1C3=CC[C@@]2(C)[C@H](C(=O)O)[C@@](C)([C@H](C)C(C)C)CC[C@]12C)C(C)C	11.5 nM	-1.53 deltalog10CFU	0.06 µg/mL (≈ 0.0861 µM)	-2.9 deltalog10CFU	25%	100%	10.3%	< 0.03 µg/mL	-2.4 deltalog10CFU	-1.1 deltalog10CFU	-3 deltalog10CFU	100%	-2.04 deltalog10CFU	0.36 µM·h	16 µg/mL	10 mg/kg	100%	3.13 µM·h	40%	0.35 µM·kg·h/mg	Activity [20]: -2.98 deltalog10CFU
CC(C)[C@@H](C)[C@@]1(C)CC[C@]2(C)[C@H]3CC[C@H]4C5(C)COC[C@@]4(C[C@@H](n4nnc(N)n4)[C@@H]5OC[C@](C)(N)C(C)C)C3=CC[C@@]2(C)[C@@H]1C(=O)O	3.05 nM		< 0.03 µg/mL		14%			< 0.03 µg/mL	-0.3 deltalog10CFU	-0.1 deltalog10CFU	-2.2 deltalog10CFU				2 µg/mL					0.14 µM·kg·h/mg	Drug metabolism [22]: metabolite_detected
CC(C)[C@@H](C)[C@@]1(C)CC[C@]2(C)[C@H]3CC[C@H]4C5(C)COC[C@@]4(C[C@@H](n4nnc(N)n4)[C@@H]5OC[C@@](C)(C(C)C)N(C)C)C3=CC[C@@]2(C)[C@@H]1C(=O)O	13.2 nM	-2.38 deltalog10CFU	0.25 µg/mL (≈ 0.366 µM)	-2.75 deltalog10CFU	17%	100%	51.3%	< 0.03 µg/mL	-2.5 deltalog10CFU	-0.7 deltalog10CFU	-2.6 deltalog10CFU	100%	-1.19 deltalog10CFU	0.11 µM·h	8 µg/mL	9 mg/kg	100%	1.27 µM·h	40%	0.15 µM·kg·h/mg	AUC [23]: 1.23 µM·h; Activity [20]: -3.36 deltalog10CFU
